{"source": "ChEMBL document CHEMBL4507299", "about": "“Data for DCP probe PF-04554878” (2021)", "key": {"[1]": {"test_system": "Tyrosine-protein kinase ABL1 (Homo sapiens), P00519 [H396P]"}, "[2]": {"target": "Mitogen-activated protein kinase kinase kinase 5 (Homo sapiens) (UniProt Q99683)"}, "[3]": {"target": "T1, Aurora kinase A (Homo sapiens) (UniProt O14965)", "T1 sequence (whole entry)": "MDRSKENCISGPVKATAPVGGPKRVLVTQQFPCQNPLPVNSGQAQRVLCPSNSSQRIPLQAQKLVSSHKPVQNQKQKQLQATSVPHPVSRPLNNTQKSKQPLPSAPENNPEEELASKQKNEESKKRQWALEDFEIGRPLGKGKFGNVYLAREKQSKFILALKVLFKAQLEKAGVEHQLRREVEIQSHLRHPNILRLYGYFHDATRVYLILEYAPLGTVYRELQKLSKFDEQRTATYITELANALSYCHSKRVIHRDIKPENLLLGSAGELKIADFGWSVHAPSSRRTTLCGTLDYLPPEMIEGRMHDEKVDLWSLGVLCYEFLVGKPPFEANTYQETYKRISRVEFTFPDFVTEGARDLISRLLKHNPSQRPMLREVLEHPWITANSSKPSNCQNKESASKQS"}, "[4]": {"target": "Tyrosine-protein kinase Blk (Homo sapiens) (UniProt P51451)", "sequence (P51451 2-505 limits assumed)": "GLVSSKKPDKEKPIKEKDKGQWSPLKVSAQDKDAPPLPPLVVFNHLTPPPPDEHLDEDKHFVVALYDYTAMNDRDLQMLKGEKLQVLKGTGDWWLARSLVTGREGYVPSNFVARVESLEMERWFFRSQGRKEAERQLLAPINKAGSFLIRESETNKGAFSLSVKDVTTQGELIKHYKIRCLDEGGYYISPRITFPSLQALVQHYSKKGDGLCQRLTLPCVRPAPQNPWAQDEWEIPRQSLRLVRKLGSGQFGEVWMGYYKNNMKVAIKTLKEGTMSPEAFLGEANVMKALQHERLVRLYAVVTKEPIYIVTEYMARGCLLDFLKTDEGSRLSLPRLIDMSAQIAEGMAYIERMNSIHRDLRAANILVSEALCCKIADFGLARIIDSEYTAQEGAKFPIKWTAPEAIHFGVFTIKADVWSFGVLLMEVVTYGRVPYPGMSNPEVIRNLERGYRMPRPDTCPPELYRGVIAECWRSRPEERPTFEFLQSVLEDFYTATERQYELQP"}, "[5]": {"target": "Calcium/calmodulin-dependent protein kinase type 1D (Homo sapiens) (UniProt Q8IU85)"}, "[6]": {"target": "Calcium/calmodulin-dependent protein kinase kinase 1 (Homo sapiens) (UniProt Q8N5S9)", "sequence (Q8N5S9 whole entry, looked up)": "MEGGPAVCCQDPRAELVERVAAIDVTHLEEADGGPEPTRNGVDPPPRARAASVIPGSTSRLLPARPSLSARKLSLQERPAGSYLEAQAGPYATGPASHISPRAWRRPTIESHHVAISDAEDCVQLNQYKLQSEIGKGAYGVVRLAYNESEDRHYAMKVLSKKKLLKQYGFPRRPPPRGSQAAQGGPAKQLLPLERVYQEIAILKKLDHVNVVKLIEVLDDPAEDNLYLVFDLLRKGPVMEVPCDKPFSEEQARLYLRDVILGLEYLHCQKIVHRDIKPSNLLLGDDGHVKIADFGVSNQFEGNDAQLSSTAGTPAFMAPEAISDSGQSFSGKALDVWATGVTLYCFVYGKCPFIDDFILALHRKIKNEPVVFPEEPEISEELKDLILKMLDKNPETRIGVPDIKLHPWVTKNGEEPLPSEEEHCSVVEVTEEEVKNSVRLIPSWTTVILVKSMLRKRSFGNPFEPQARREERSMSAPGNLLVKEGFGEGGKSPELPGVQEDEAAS"}, "[7]": {"target": "Cyclin-dependent kinase 13 (Homo sapiens) (UniProt Q14004)"}, "[8]": {"target": "T2, Serine/threonine-protein kinase Chk1 (Homo sapiens) (UniProt O14757)", "T2 sequence (whole entry)": "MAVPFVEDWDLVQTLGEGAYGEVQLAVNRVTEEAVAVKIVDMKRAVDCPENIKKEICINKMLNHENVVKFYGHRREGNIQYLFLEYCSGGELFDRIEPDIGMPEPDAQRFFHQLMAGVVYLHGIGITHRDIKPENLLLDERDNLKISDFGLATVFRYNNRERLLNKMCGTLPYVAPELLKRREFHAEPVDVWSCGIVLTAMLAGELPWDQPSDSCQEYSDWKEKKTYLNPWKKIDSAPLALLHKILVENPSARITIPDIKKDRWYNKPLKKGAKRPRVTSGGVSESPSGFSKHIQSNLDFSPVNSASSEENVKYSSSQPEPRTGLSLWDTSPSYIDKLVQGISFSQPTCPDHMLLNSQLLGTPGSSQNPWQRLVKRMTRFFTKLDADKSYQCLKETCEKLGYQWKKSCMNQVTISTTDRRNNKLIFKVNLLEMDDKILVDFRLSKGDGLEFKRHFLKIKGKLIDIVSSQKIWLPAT"}, "[9]": {"test_system": "Epidermal growth factor receptor (Homo sapiens), P00533 [L858R]"}, "[10]": {"target": "Ephrin type-B receptor 1 (Homo sapiens) (UniProt P54762)"}, "[11]": {"test_system": "Receptor-type tyrosine-protein kinase FLT3 (Homo sapiens), P36888 [D835V]"}, "[12]": {"target": "Receptor-type tyrosine-protein kinase FLT3 (Homo sapiens) (UniProt P36888)"}, "[13]": {"target": "Mitogen-activated protein kinase 9 (Homo sapiens) (UniProt P45984)", "sequence (P45984 whole entry, looked up)": "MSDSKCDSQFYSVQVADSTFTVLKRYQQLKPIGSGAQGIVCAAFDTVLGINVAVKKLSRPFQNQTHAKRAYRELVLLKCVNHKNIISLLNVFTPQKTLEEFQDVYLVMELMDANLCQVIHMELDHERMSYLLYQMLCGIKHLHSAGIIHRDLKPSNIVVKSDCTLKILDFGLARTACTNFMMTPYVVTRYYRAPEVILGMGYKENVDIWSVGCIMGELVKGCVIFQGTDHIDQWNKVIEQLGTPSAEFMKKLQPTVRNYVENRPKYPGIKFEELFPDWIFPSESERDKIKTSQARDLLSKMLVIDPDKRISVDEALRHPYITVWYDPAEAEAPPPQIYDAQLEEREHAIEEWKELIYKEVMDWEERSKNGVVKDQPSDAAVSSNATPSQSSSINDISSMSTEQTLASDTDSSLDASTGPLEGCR"}, "[14]": {"test_system": "Mast/stem cell growth factor receptor Kit (Homo sapiens), P10721 [D816V]", "sequence (P10721 whole entry D816V)": "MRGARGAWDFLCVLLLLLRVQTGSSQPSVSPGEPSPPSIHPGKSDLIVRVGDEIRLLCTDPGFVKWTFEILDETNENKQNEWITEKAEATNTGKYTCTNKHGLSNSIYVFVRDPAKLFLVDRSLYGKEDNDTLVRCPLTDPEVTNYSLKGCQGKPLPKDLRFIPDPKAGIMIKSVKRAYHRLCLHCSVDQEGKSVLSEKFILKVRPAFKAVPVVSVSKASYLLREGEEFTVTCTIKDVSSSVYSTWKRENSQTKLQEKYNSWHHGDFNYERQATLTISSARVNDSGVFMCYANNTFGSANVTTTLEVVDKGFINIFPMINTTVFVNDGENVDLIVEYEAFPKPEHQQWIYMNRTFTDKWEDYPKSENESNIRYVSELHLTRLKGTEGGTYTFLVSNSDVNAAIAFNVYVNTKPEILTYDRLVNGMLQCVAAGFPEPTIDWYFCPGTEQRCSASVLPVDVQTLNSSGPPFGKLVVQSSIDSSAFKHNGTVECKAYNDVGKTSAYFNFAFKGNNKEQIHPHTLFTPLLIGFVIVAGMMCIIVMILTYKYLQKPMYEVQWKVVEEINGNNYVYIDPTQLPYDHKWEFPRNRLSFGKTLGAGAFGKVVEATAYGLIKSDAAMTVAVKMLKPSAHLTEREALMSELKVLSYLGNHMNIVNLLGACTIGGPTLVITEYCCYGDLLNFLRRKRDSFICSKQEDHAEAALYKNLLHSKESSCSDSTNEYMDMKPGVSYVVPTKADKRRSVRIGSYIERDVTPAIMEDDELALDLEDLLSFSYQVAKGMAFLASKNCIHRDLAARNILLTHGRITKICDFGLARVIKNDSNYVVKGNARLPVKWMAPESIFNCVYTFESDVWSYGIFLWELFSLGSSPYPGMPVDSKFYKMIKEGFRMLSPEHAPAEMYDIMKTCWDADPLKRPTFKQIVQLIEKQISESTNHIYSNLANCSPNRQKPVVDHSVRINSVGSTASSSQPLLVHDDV"}, "[15]": {"target": "Mast/stem cell growth factor receptor Kit (Homo sapiens) (UniProt P10721)", "sequence (P10721 whole entry)": "as the sequence (P10721 whole entry D816V) above, with V816D counted along it"}, "[16]": {"target": "Serine/threonine-protein kinase LATS1 (Homo sapiens) (UniProt O95835)"}, "[17]": {"target": "LIM domain kinase 1 (Homo sapiens) (UniProt P53667)"}, "[18]": {"target": "Leukocyte tyrosine kinase receptor (Homo sapiens) (UniProt P29376)"}, "[19]": {"target": "Mitogen-activated protein kinase kinase kinase kinase 2 (Homo sapiens) (UniProt Q12851)"}, "[20]": {"target": "MAP kinase-activated protein kinase 2 (Homo sapiens) (UniProt P49137)"}, "[21]": {"target": "Dual specificity mitogen-activated protein kinase kinase 5 (Homo sapiens) (UniProt Q13163)"}, "[22]": {"target": "Serine/threonine-protein kinase mTOR (Homo sapiens) (UniProt P42345)"}, "[23]": {"target": "Mitogen-activated protein kinase 12 (Homo sapiens) (UniProt P53778)"}, "[24]": {"target": "Phosphatidylinositol 3-kinase C2 domain-containing subunit gamma (Homo sapiens) (UniProt O75747)"}, "[25]": {"target": "Serine/threonine-protein kinase pim-3 (Homo sapiens) (UniProt Q86V86)"}, "[26]": {"target": "Phosphatidylinositol 4-phosphate 5-kinase type-1 alpha (Homo sapiens) (UniProt Q99755)"}, "[27]": {"target": "cGMP-dependent protein kinase 1 (Homo sapiens) (UniProt Q13976)", "sequence (Q13976 whole entry)": "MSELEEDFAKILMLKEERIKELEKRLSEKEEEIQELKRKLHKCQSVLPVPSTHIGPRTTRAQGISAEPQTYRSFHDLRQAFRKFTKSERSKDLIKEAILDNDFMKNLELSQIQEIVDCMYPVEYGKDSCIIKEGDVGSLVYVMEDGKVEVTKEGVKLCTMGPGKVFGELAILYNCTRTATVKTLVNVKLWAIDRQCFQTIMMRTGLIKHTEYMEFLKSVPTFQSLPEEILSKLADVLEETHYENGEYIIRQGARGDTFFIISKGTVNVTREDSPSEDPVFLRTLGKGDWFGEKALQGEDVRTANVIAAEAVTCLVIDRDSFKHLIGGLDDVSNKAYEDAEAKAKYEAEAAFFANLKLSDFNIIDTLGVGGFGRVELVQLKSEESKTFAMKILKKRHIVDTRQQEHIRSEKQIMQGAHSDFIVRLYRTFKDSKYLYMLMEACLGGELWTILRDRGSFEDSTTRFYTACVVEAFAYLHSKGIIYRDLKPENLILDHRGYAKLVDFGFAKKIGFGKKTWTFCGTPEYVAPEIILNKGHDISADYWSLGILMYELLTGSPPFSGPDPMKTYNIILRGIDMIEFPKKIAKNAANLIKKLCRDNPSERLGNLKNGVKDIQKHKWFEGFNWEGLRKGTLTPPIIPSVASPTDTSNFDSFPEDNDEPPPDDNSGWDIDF"}, "[28]": {"test_system": "Proto-oncogene tyrosine-protein kinase receptor Ret (Homo sapiens), P07949 [V804L]"}, "[29]": {"target": "Serine/threonine-protein kinase VRK2 (Homo sapiens) (UniProt Q86Y07)"}, "[30]": {"target": "Wee1-like protein kinase (Homo sapiens) (UniProt P30291)", "sequence (P30291 whole entry, looked up)": "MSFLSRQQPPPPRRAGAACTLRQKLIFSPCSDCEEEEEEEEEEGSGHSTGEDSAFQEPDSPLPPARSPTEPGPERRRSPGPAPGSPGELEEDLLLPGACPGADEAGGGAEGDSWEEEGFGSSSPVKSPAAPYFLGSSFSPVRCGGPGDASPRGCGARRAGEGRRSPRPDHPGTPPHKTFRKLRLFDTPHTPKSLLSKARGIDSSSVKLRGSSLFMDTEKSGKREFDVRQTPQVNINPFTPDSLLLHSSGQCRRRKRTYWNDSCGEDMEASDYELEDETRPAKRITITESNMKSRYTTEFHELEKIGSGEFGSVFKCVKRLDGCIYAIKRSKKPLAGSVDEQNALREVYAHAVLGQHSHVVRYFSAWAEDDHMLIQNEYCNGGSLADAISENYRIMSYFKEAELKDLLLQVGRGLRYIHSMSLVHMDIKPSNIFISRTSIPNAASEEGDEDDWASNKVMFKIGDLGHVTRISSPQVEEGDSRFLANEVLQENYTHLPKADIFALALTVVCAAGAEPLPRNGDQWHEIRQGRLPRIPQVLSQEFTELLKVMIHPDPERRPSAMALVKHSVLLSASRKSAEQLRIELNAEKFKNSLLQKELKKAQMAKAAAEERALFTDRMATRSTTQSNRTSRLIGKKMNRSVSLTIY"}, "[31]": {"target": "Serine/threonine-protein kinase WNK4 (Homo sapiens) (UniProt Q96J92)"}, "[32]": {"target": "Serine/threonine-protein kinase 32B (Homo sapiens) (UniProt Q9NY57)", "sequence (Q9NY57 whole entry)": "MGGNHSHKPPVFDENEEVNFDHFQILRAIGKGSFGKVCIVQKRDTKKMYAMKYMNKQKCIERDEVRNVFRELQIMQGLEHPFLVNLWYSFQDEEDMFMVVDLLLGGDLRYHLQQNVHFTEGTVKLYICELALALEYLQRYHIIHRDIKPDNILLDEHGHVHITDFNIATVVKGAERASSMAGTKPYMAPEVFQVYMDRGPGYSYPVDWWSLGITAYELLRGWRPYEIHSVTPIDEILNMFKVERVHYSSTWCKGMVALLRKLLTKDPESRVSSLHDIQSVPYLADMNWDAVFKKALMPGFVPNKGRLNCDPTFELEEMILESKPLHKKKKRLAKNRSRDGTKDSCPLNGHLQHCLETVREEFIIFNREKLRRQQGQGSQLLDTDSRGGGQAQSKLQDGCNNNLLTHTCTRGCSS"}, "[33]": {"target": "Alpha-1B adrenergic receptor (Homo sapiens) (UniProt P35368)", "sequence (P35368 whole entry)": "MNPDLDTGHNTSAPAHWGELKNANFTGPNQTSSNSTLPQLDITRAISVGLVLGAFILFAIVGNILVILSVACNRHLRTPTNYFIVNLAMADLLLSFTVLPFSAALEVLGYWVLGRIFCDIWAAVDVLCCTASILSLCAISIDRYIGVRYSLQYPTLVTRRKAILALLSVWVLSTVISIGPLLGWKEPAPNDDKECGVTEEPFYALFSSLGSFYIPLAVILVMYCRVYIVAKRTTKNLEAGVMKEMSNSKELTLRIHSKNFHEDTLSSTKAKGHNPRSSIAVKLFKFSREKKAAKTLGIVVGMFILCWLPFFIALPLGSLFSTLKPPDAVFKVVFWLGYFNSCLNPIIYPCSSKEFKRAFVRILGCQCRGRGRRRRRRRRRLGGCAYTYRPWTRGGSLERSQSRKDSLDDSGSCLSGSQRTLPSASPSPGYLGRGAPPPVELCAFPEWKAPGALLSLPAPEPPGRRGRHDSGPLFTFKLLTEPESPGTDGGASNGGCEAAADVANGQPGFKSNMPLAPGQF", "conditions": "Compound concentration 10.0 uM"}, "[34]": {"conditions": "Compound concentration 100.0 nM"}, "[35]": {"conditions": "Compound concentration 1000.0 nM"}}}
{"compound": "CNC(=O)c1ccc(Nc2ncc(C(F)(F)F)c(NCc3nccnc3N(C)S(C)(=O)=O)n2)cc1", "note": "[DEFACTINIB]", "values": [{"measurement": "residual activity", "setting": "[1]; [34]", "result": 100, "unit": "%"}, {"measurement": "residual activity", "setting": "[2]; [34]", "result": 100, "unit": "%"}, {"measurement": "residual activity", "setting": "[3]; [34]", "result": 50, "unit": "%"}, {"measurement": "residual activity", "setting": "[4]; [34]", "result": 78, "unit": "%"}, {"measurement": "residual activity", "setting": "[5]; [34]", "result": 100, "unit": "%"}, {"measurement": "residual activity", "setting": "[6]; [34]", "result": 75, "unit": "%"}, {"measurement": "residual activity", "setting": "[7]; [34]", "result": 94, "unit": "%"}, {"measurement": "residual activity", "setting": "[8]; [34]", "result": 100, "unit": "%"}, {"measurement": "residual activity", "setting": "[9]; [34]", "result": 100, "unit": "%"}, {"measurement": "residual activity", "setting": "[10]; [34]", "result": 87, "unit": "%"}, {"measurement": "residual activity", "setting": "[11]; [34]", "result": 0.2, "unit": "%"}, {"measurement": "residual activity", "setting": "[12]; [34]", "result": 74, "unit": "%"}, {"measurement": "residual activity", "setting": "[13]; [34]", "result": 95, "unit": "%"}, {"measurement": "residual activity", "setting": "[14]; [34]", "result": 80, "unit": "%"}, {"measurement": "residual activity", "setting": "[15]; [34]", "result": 100, "unit": "%"}, {"measurement": "residual activity", "setting": "[16]; [34]", "result": 96, "unit": "%"}, {"measurement": "residual activity", "setting": "[17]; [34]", "result": 100, "unit": "%"}, {"measurement": "residual activity", "setting": "[18]; [34]", "result": 89, "unit": "%"}, {"measurement": "residual activity", "setting": "[19]; [34]", "result": 100, "unit": "%"}, {"measurement": "residual activity", "setting": "[20]; [34]", "result": 100, "unit": "%"}, {"measurement": "residual activity", "setting": "[21]; [34]", "result": 89, "unit": "%"}, {"measurement": "residual activity", "setting": "[22]; [34]", "result": 100, "unit": "%"}, {"measurement": "residual activity", "setting": "[23]; [34]", "result": 67, "unit": "%"}, {"measurement": "residual activity", "setting": "[24]; [34]", "result": 92, "unit": "%"}, {"measurement": "residual activity", "setting": "[25]; [34]", "result": 82, "unit": "%"}, {"measurement": "residual activity", "setting": "[26]; [34]", "result": 98, "unit": "%"}, {"measurement": "residual activity", "setting": "[27]; [34]", "result": 100, "unit": "%"}, {"measurement": "residual activity", "setting": "[28]; [34]", "result": 30, "unit": "%"}, {"measurement": "residual activity", "setting": "[29]; [34]", "result": 85, "unit": "%"}, {"measurement": "residual activity", "setting": "[30]; [34]", "result": 95, "unit": "%"}, {"measurement": "residual activity", "setting": "[31]; [34]", "result": 81, "unit": "%"}, {"measurement": "residual activity", "setting": "[32]; [34]", "result": 97, "unit": "%"}, {"measurement": "inhibition", "setting": "[33]", "result": -0.22, "unit": "%"}]}
{"compound": "CN(c1ccnc(CNc2nc(Nc3ccc4c(c3)CC(=O)N4)ncc2C(F)(F)F)n1)S(C)(=O)=O", "note": "[PF-00911705]", "values": [{"measurement": "residual activity", "setting": "[1]; [35]", "result": 46, "unit": "%"}, {"measurement": "residual activity", "setting": "[2]; [35]", "result": 100, "unit": "%"}, {"measurement": "residual activity", "setting": "[3]; [35]", "result": 14, "unit": "%"}, {"measurement": "residual activity", "setting": "[4]; [35]", "result": 40, "unit": "%"}, {"measurement": "residual activity", "setting": "[5]; [35]", "result": 79, "unit": "%"}, {"measurement": "residual activity", "setting": "[6]; [35]", "result": 90, "unit": "%"}, {"measurement": "residual activity", "setting": "[7]; [35]", "result": 82, "unit": "%"}, {"measurement": "residual activity", "setting": "[8]; [35]", "result": 57, "unit": "%"}, {"measurement": "residual activity", "setting": "[9]; [35]", "result": 73, "unit": "%"}, {"measurement": "residual activity", "setting": "[10]; [35]", "result": 99, "unit": "%"}, {"measurement": "residual activity", "setting": "[11]; [35]", "result": 1.5, "unit": "%"}, {"measurement": "residual activity", "setting": "[12]; [35]", "result": 64, "unit": "%"}, {"measurement": "residual activity", "setting": "[13]; [35]", "result": 79, "unit": "%"}, {"measurement": "residual activity", "setting": "[14]; [35]", "result": 28, "unit": "%"}, {"measurement": "residual activity", "setting": "[15]; [35]", "result": 52, "unit": "%"}, {"measurement": "residual activity", "setting": "[16]; [35]", "result": 51, "unit": "%"}, {"measurement": "residual activity", "setting": "[17]; [35]", "result": 97, "unit": "%"}, {"measurement": "residual activity", "setting": "[18]; [35]", "result": 100, "unit": "%"}, {"measurement": "residual activity", "setting": "[19]; [35]", "result": 39, "unit": "%"}, {"measurement": "residual activity", "setting": "[20]; [35]", "result": 100, "unit": "%"}, {"measurement": "residual activity", "setting": "[21]; [35]", "result": 48, "unit": "%"}, {"measurement": "residual activity", "setting": "[22]; [35]", "result": 94, "unit": "%"}, {"measurement": "residual activity", "setting": "[23]; [35]", "result": 58, "unit": "%"}, {"measurement": "residual activity", "setting": "[24]; [35]", "result": 77, "unit": "%"}, {"measurement": "residual activity", "setting": "[25]; [35]", "result": 77, "unit": "%"}, {"measurement": "residual activity", "setting": "[26]; [35]", "result": 12, "unit": "%"}, {"measurement": "residual activity", "setting": "[27]; [35]", "result": 100, "unit": "%"}, {"measurement": "residual activity", "setting": "[28]; [35]", "result": 21, "unit": "%"}, {"measurement": "residual activity", "setting": "[29]; [35]", "result": 78, "unit": "%"}, {"measurement": "residual activity", "setting": "[30]; [35]", "result": 13, "unit": "%"}, {"measurement": "residual activity", "setting": "[31]; [35]", "result": 0, "unit": "%"}, {"measurement": "residual activity", "setting": "[32]; [35]", "result": 100, "unit": "%"}, {"measurement": "inhibition", "setting": "[33]", "result": 0.5, "unit": "%"}]}
